Assay results reported in patent publication US12421212B2, “Substituted benzenecarboxamides as IL-17A modulators” (DiCE Alpha, Inc., priority 2019, dated 2025).

Biological target: T1, IL-17A/A (Homo sapiens, UniProt Q16552)
T1 construct: purchased Genscript Z03228
T1 sequence (Q16552 24-155): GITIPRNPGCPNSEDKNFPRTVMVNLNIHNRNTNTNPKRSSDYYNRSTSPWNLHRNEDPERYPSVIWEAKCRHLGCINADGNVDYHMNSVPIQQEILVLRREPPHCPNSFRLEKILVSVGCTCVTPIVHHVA
Assay: IL-17A/A HEK-Blue Cell Assay
Format: cell-based
Details: HEK-Blue IL-17A reporter cell line, SEAP readout at A630, 20 hours incubation with IL-17A/A, top concentration 10 uM, 1 uM or 0.3 uM; for IC50: read-out: IL-17A/A inhibition (pIC50) (converted)

SMILES	IC50 [nM]	IL-17A/A inhibition (pIC50)
CCn1nccc1C(=O)N[C@H](C(=O)Nc1ccc([C@H](C)[C@@H](NC(=O)NC(C)C)C(=O)N2CCN(C)CC2)cc1F)C1CCCCCC1 [Compound 327]	10 to 100	–
CC(C)n1nccc1C(=O)N[C@H](C(=O)Nc1ccc([C@H](C)[C@@H](NC(=O)c2cnns2)C(=O)N2CCN(C)CC2)cc1F)C1CCCCC1 [Compound 312]	< 10	–
CCC(=O)N[C@@H](C(=O)N1CCN(C)CC1)[C@H](C)c1ccc(NC(=O)[C@@H](NC(=O)c2ccnn2CC)[C@H]2CC[C@H](C)CC2)c(F)c1 [Compound 544]	–	X3a (compounds were evaluated up to 0.3 uM and did not inhibit activity by >80%, however they showed some activity at 0.3 uM (less than 80% and more than 20%))
CCC(=O)N[C@@H](C(=O)N1CCC(C)(O)CC1)[C@@H](C)c1ccc(NC(=O)[C@@H](NC(=O)c2conc2CC)C2CCCCCC2)c(F)c1 [Compound 357]	< 10	–
CCC(=O)N[C@H](Cc1ccc(NC(=O)[C@H](Cc2ccc3ccccc3c2)NC(=O)c2ccnn2CC)c(F)c1)C(=O)N1CCN(C)CC1 [Compound 724]	–	X2b (compounds were evaluated up to 1 uM and inhibited activity at 1 uM by less than 20%)
CCn1nccc1C(=O)N[C@H](C(=O)Nc1ccc([C@H](C)[C@@H](NC(=O)c2cn[nH]c2)C(=O)N2CCN(C)CC2)cc1F)C1CCCCC1 [Compound 677]	100 to 10000	–
CCC(=O)N[C@@H](C(=O)N1CCN(CCO)CC1)[C@@H](C)c1ccc(NC(=O)[C@@H](NC(=O)c2nonc2CC)[C@H]2CC[C@H](C)CC2)c(F)c1 [Compound 445]	10 to 100	–
CCC(=O)N[C@@H](C(=O)N1CCN(C)CC1)[C@@H](C)c1ccc(NC(=O)C(NC(=O)c2nonc2CC)C(C)c2ccccc2Cl)c(F)c1 (stereo partly drawn) [Compound 522]	–	X1b (compounds were evaluated up to 10 uM and inhibited activity at 10 uM by less than 20%)
CCC(=O)N[C@@H](C(=O)N1CCN(Cc2ccccn2)CC1)[C@@H](C)c1ccc(NC(=O)[C@@H](NC(=O)C(F)(F)c2cccc(C#N)c2)C2CCCCC2)c(F)c1 [Compound 363]	< 10	–
CCC(=O)N[C@H](C(=O)NC1CCOCC1)[C@@H](C)c1ccc(NC(=O)[C@@H](NC(=O)c2ccnn2CC)C2CCCCC2)c(F)c1 [Compound 757]	–	X2b (compounds were evaluated up to 1 uM and inhibited activity at 1 uM by less than 20%)
CCC(=O)N[C@@H](C(=O)N1CCN(C)CC1)[C@@H](C)c1ccc(NC(=O)[C@@H](NC(=O)c2ccnn2C(C)C)C2CCCCC2)c(F)c1 [Compound 256]	10 to 100	–
CCC(=O)N[C@@H](C(=O)N1CCS(=O)(=O)CC1)[C@@H](C)c1ccc(NC(=O)[C@@H](NC(=O)c2ccnn2CC)C2CCCCC2)c(F)c1 [Compound 361]	10 to 100	–
CCn1nccc1C(=O)N[C@H](C(=O)Nc1ccc([C@H](C)[C@@H](NS(=O)(=O)CC)C(=O)N2CCN(C)CC2)cc1F)[C@H]1CC[C@H](C)CC1 [Compound 485]	10 to 100	–
CCC(=O)NC(Cc1ccc(NC(=O)[C@@H](NC(=O)c2ccnn2CC)C2CCCCC2)c(F)c1)C(=O)N1CCN2CCOCC2C1 (stereo partly drawn) [Compound 693]	100 to 10000	–
CCC(=O)N[C@@H](C(=O)N1CCN(C)CC1)[C@@H](C)c1ccc(NC(=O)[C@@H](NC(=O)c2conc2C2CC2)C2CCCCCC2)c(F)c1 [Compound 269]	< 10	–
CCC(=O)N[C@@H](C(=O)N1CCN(C)CC1)[C@@H](C)c1ccc(NC(=O)C(NC(=O)c2ccnn2CC)C2CCc3cc(F)cc(F)c32)c(F)c1 (single isomer, unassigned) [Compound 809]	< 10	–
CCC(=O)N[C@@H](C(=O)N1CCC(F)(F)CC1)[C@@H](C)c1ccc(NC(=O)[C@@H](NC(=O)c2ccnn2CC)[C@H]2CC[C@H](C)CC2)c(F)c1 [Compound 369]	10 to 100	–
CCC(=O)N[C@@H](C(=O)N1CCN(C)CC1)[C@@H](CC)c1ccc(NC(=O)[C@@H](NC(=O)C(F)(F)c2ccc(OC)nc2)C2CCCCCC2)cc1 [Compound 227]	10 to 100	–
CCC(=O)N[C@H](Cc1ccc(NC(=O)[C@@H](NC(=O)c2cnn3c2CCC3)C2CCCCC2)c(F)c1)C(=O)N1CCN(C)CC1 [Compound 703]	–	X2a (compounds were evaluated up to 1 uM and did not inhibit activity by >80%, however they showed some activity at 1 uM (less than 80% and more than 20%))
CCc1nonc1C(=O)N[C@H](C(=O)Nc1ccc([C@H](C)[C@@H](NC(=O)C(F)F)C(=O)N2CCN(C)[C@@H](C)C2)cc1F)[C@H]1CC[C@H](C)CC1 [Compound 512]	–	B (8>B≥7 as B)
CCC(=O)N[C@@H](C(=O)N1CCN(C)CC1)[C@@H](C)c1ccc(NC(=O)C(NC(=O)c2ccnn2CC)C(CC)c2ccc(F)cc2)c(F)c1 (single isomer, unassigned) [Compound 553]	–	X2a (compounds were evaluated up to 1 uM and did not inhibit activity by >80%, however they showed some activity at 1 uM (less than 80% and more than 20%))

Now from value to compound, other results behind:

IC50 [nM]	SMILES	IL-17A/A inhibition (pIC50)
10 to 100	CCc1nonc1C(=O)N[C@H](C(=O)Nc1ccc([C@H](C)[C@@H](NC(=O)c2ccnc3c2OCCO3)C(=O)N2CCN(C)CC2)cc1F)[C@H]1CC[C@H](C)CC1 [Compound 579]	–
< 10	COc1cncc(C(F)(F)C(=O)N[C@H](C(=O)Nc2ccc([C@H](C)[C@@H](NC(=O)c3cnns3)C(=O)N3CCN(C)CC3)cc2F)[C@H]2CC[C@H](C)CC2)c1 [Compound 400]	–
< 10	CCc1nonc1C(=O)N[C@H](C(=O)Nc1ccc([C@H](C)[C@@H](NC(=O)N(C)C2CCC2)C(=O)N2CCN(C)CC2)cc1F)[C@H]1CC[C@H](C)CC1 [Compound 516]	–
10 to 100	CCC(=O)N[C@@H](C(=O)N1CCN(C)CC1)[C@@H](C)c1ccc(NC(=O)C(NC(=O)c2ccnn2CC)C(C)c2ccc(C)cc2)c(F)c1 (single isomer, unassigned) [Compound 294]	–
100 to 10000	CCC(=O)N[C@@H](C(=O)N(C)Cc1cncn1C)[C@@H](C)c1ccc(NC(=O)[C@@H](NC(=O)c2nonc2CC)[C@H]2CC[C@H](C)CC2)c(F)c1 [Compound 455]	–
< 10	CCC(=O)N[C@@H](C(=O)N1C[C@H](C)N(C(=O)CC)[C@@H](C)C1)[C@@H](C)c1ccc(NC(=O)[C@@H](NC(=O)c2nonc2CC)[C@H]2CC[C@H](C)CC2)c(F)c1 [Compound 448]	–
< 10	CCc1nonc1C(=O)N[C@H](C(=O)Nc1ccc([C@H](C)[C@@H](NC(=O)c2cnns2)C(=O)N2CCN(C)CC2)cc1F)[C@H]1CC[C@H](C)CC1 [Compound 408]	–
100 to 10000	CCC(=O)N[C@H](Cc1ccc(NC(=O)[C@@H](NC(=O)C(F)(F)c2ccc(C)nc2)C2CCCCC2)c(F)c1)C(=O)N1CCN(C)CC1 [Compound 208]	–
10 to 100	CCC(=O)N[C@@H](C(=O)N1CCNC2(CC2)C1)[C@@H](C)c1ccc(NC(=O)[C@@H](NC(=O)c2nonc2CC)[C@H]2CC[C@H](C)CC2)c(F)c1 [Compound 444]	–
10 to 100	CCC(=O)N[C@@H](C(=O)N1CCN(C)CC1)[C@@H](C)c1ccc(NC(=O)[C@@H](NC(=O)c2occc2CC)[C@H]2CC[C@H](C)CC2)c(F)c1 [Compound 524]	–
100 to 10000	CCC(=O)N[C@H](Cc1ccc(NC(=O)[C@@H](NC(=O)C(F)(F)c2ccc(OC)nc2)[C@H]2CC[C@H](C)CC2)c(F)c1)C(=O)N1CCN(C)CC1 [Compound 216]	–
< 10	CCC(=O)N[C@@H](C(=O)N1CCN(C)CC1)[C@@H](C)c1ccc(NC(=O)[C@@H](NC(=O)C(F)(F)c2csc(C)c2)C2CCCCCC2)c(F)c1 [Compound 265]	–
